Reference: patent publication US20260159536A1, “AKR1C3-ACTIVATED DNA ALKYLATING AGENT, AND MEDICAL APPLICATION THEREOF” (ASCENTAWITS PHARMACEUTICALS, LTD., priority 2021, published 2026)

Test system: HuPrime model LI6643 human liver cancer
Test: In vivo pharmacodynamics, liver cancer LI6643 PDX model (Compound A, Sorafenib; section 4.8)
Design: species or system BALB/c nude mice
[1] = 1.25 mg/kg, QDx5, 2 days off, 2 weeks off, QDx5, i.p., Day 35
[2] = 2.5 mg/kg, QDx5, 2 days off, 2 weeks off, QDx5, i.p., Day 35
[3] = 5 mg/kg, QDx5, 2 days off, 2 weeks off, QDx5, i.p., Day 35
[4] = 10 mg/kg, QWx2, 1 week off, QWx2, i.v., Day 35

Protocol: Experiment Instruction: BALB/c nude mice were subcutaneously inoculated with HuPrime® model LI6643 tumor blocks to establish a subcutaneous transplantation tumor model of human liver cancer. […] The efficacy was evaluated according to the relative tumor inhibition rate TGI (%), and the safety was evaluated according to the change in body weight and the death of the animals.

O=[N+]([O-])c1ccc(C(OP(=O)(N2CC2)N2CC2)C(F)(F)F)cc1Oc1ccc(-c2ccc(F)cc2)c(F)c1 (racemic) [Compound A]
Tumor volume (1.25 mg/kg i.p., Day 0): 126.02 mm^3 | Tumor volume (1.25 mg/kg i.p., Day 4): 181.97 mm^3 | Tumor volume (1.25 mg/kg i.p., Day 7): 270.85 mm^3 | Tumor volume (1.25 mg/kg i.p., Day 11): 264.04 mm^3 | Tumor volume (1.25 mg/kg i.p., Day 14): 197.40 mm^3 | Tumor volume (1.25 mg/kg i.p., Day 18): 177.65 mm^3 | Tumor volume (1.25 mg/kg i.p., Day 21): 102.13 mm^3 | Tumor volume (1.25 mg/kg i.p., Day 25): 90.41 mm^3 | Tumor volume (1.25 mg/kg i.p., Day 28): 73.75 mm^3 | Tumor volume (1.25 mg/kg i.p., Day 32): 49.39 mm^3 | Tumor volume (1.25 mg/kg i.p., Day 35): 35.61 mm^3 | Tumor volume (1.25 mg/kg i.p., Day 39): 31.79 mm^3 | Tumor volume (1.25 mg/kg i.p., Day 42): 25.59 mm^3 | Tumor volume (1.25 mg/kg i.p., Day 46): 19.34 mm^3 | Tumor volume (1.25 mg/kg i.p., Day 49): 12.51 mm^3 | Tumor volume (1.25 mg/kg i.p., Day 53): 9.04 mm^3 | Relative tumor volume (x ± S) [1]: 0.27 ± 0.14 | T/C (%) [1]: 1.89% | TGI (%) [1]: 98.11% | Tumor volume (x ± S) [1]: 35.61 ± 18.63 | Tumor volume (2.5 mg/kg i.p., Day 0): 125.92 mm^3 | Tumor volume (2.5 mg/kg i.p., Day 4): 199.12 mm^3 | Tumor volume (2.5 mg/kg i.p., Day 7): 278.32 mm^3 | Tumor volume (2.5 mg/kg i.p., Day 11): 191.74 mm^3 | Tumor volume (2.5 mg/kg i.p., Day 14): 167.14 mm^3 | Tumor volume (2.5 mg/kg i.p., Day 18): 154.33 mm^3 | Tumor volume (2.5 mg/kg i.p., Day 21): 100.94 mm^3 | Tumor volume (2.5 mg/kg i.p., Day 25): 103.28 mm^3 | Tumor volume (2.5 mg/kg i.p., Day 28): 93.12 mm^3 | Tumor volume (2.5 mg/kg i.p., Day 32): 74.85 mm^3 | Tumor volume (2.5 mg/kg i.p., Day 35): 56.62 mm^3 | Tumor volume (2.5 mg/kg i.p., Day 39): 39.85 mm^3 | Tumor volume (2.5 mg/kg i.p., Day 42): 27.34 mm^3 | Tumor volume (2.5 mg/kg i.p., Day 46): 14.83 mm^3 | Tumor volume (2.5 mg/kg i.p., Day 49): 12.00 mm^3 | Tumor volume (2.5 mg/kg i.p., Day 53): 12.86 mm^3 | Relative tumor volume (x ± S) [2]: 0.45 ± 0.07 | T/C (%) [2]: 3.19% | TGI (%) [2]: 96.81% | Tumor volume (x ± S) [2]: 56.62 ± 9.62 | Tumor volume (5 mg/kg i.p., Day 0): 126.93 mm^3 | Tumor volume (5 mg/kg i.p., Day 4): 178.97 mm^3 | Tumor volume (5 mg/kg i.p., Day 7): 214.95 mm^3 | Tumor volume (5 mg/kg i.p., Day 11): 132.13 mm^3 | Tumor volume (5 mg/kg i.p., Day 14): 63.74 mm^3 | Tumor volume (5 mg/kg i.p., Day 18): 60.36 mm^3 | Tumor volume (5 mg/kg i.p., Day 21): 40.93 mm^3 | Tumor volume (5 mg/kg i.p., Day 25): 24.91 mm^3 | Tumor volume (5 mg/kg i.p., Day 28): 21.48 mm^3 | Tumor volume (5 mg/kg i.p., Day 32): 8.71 mm^3 | Tumor volume (5 mg/kg i.p., Day 35): 7.12 mm^3 | Tumor volume (5 mg/kg i.p., Day 39): 6.77 mm^3 | Tumor volume (5 mg/kg i.p., Day 42): 5.57 mm^3 | Tumor volume (5 mg/kg i.p., Day 46): 4.27 mm^3 | Tumor volume (5 mg/kg i.p., Day 49): 4.12 mm^3 | Tumor volume (5 mg/kg i.p., Day 53): 3.81 mm^3 | Relative tumor volume (x ± S) [3]: 0.05 ± 0.05 | T/C (%) [3]: 0.34% | TGI (%) [3]: 99.66% | Tumor volume (x ± S) [3]: 7.12 ± 7.12 | Tumor volume (10 mg/kg i.v., Day 0): 126.11 mm^3 | Tumor volume (10 mg/kg i.v., Day 4): 160.85 mm^3 | Tumor volume (10 mg/kg i.v., Day 7): 216.99 mm^3 | Tumor volume (10 mg/kg i.v., Day 11): 94.21 mm^3 | Tumor volume (10 mg/kg i.v., Day 14): 72.94 mm^3 | Tumor volume (10 mg/kg i.v., Day 18): 59.48 mm^3 | Tumor volume (10 mg/kg i.v., Day 21): 25.80 mm^3 | Tumor volume (10 mg/kg i.v., Day 25): 21.28 mm^3 | Tumor volume (10 mg/kg i.v., Day 28): 10.93 mm^3 | Tumor volume (10 mg/kg i.v., Day 32): 7.11 mm^3 | Tumor volume (10 mg/kg i.v., Day 35): 0.00 mm^3 | Tumor volume (10 mg/kg i.v., Day 39): 0.00 mm^3 | Tumor volume (10 mg/kg i.v., Day 42): 0.00 mm^3 | Tumor volume (10 mg/kg i.v., Day 46): 0.00 mm^3 | Tumor volume (10 mg/kg i.v., Day 49): 0.00 mm^3 | Tumor volume (10 mg/kg i.v., Day 53): 0.00 mm^3 | Relative tumor volume (x ± S) [4]: 0 ± 0 | T/C (%) [4]: 0.00% | TGI (%) [4]: 100.00% | Tumor volume (x ± S) [4]: 0 ± 0 | toxic side effects (body weight change) (1.25, 2.5, 5, 10 mg/kg): without toxic side effects
